In general, inhibition refers to how much of the control response was suppressed.

Holding throughout (assay type): cell-based
The subject of assay [1] is alpha-smooth muscle actin (α-SMA). Put plainly: Inhibition of TGF-β induced expression of alpha-smooth muscle actin in CFSC cells (western blot). Particulars: compound at 10 μM, TGF-β (10 ng/mL), 24 hours. As for the experimental part:
The ability of a compound to inhibit the TGF-β induced expression of alpha-smooth muscle actin (α-SMA) was evaluated in CCl4-treated fat storing (CFSC) cells. α-SMA is considered as a reliable marker of hepatic stellate cell activation and a key biomarker for liver fibrosis.
CFSC cells maintained in a DMEM medium supplemented with 10% fetal bovine serum were seeded to 12-well culture dishes and grown to a confluence of 60-70% the next day. Culture was changed to a serum-free DMEM medium and the cells were treated with the compound at 10 μM in the presence of TGF-β (10 ng/mL). The cells were incubated for another 24 hours. All culture was maintained at 37° C. in 5% carbon dioxide.
An NP-40 lysate solution (50 mM Tris, pH 7.4, 150 mM NaCl, 1% NP-40) with EDTA free cocktail added was used to lyse the cells on ice for 30 min. The lysate was collected and centrifuged at 4° C. for 10 min at 12,000 rpm. The pellet was discarded and the supernatant was transferred to a new tube. The cell lysate was loaded with 5× loading buffer and boiled for 10 min, resolved by 10% SDS-polyacrylamide gel electrophoresis (SDS-PAGE), and transferred to a PVDF membrane. The membrane was blocked with 5% skim milk in Tris-buffered saline and TWEEN® 20 (TBST; 10 mM Tris-HCl, pH 8.0, 150 mM NaCl, 0.1% TWEEN® 20) for 1 h at room temperature and then incubated with α-SMA and β-actin antibodies overnight at 4° C. After washing twice with TBST, the membrane was probed with a […] anti-immunoglobulin (1:5000 dilution) for 1 h at room temperature. After two subsequent rinses in TBST, immunoreactive products were reacted with ECL and visualized by a UVP CHEMSTUDIO™ imaging system. The western blotting bands are quantitated using an ImageJ software. The percentage of inhibition was obtained by calculating the percentage decrease in the band intensity compared to the one treated with TGF-β only.
The results are summarized in Table 1, where A represents a value no less than 80/% inhibition, B represents a value less than 80% but no less than 50% inhibition, C represents a value less than 50% but no less than 30% inhibition, and D represents a value less than 30% inhibition with a compound at 10 μM.
On the technique in general: In western blotting, separated proteins are transferred to a membrane and probed.

In assay [2] the test system is MDA-MB-231 (breast cancer). Put plainly: Antiproliferative activity, CCK-8 cell viability. Particulars: Homo sapiens, 72 h, read-out: Inhibition of Cancerous Cells, MDA-MB-231. As to the method:
(§1) The antiproliferative activity of a compound was determined in the following cell lines: MDA-MB-231 (breast cancer), HepG2 (liver cancer), SW480 (colon cancer), B16F10 (malignant melanoma), A431 (epidermoid carcinoma), A549 (lung adenocarcinoma), and HeLa (cervical cancer). MDA-MB-231, HepG2, SW480, B16F10, and A431 cells were cultured in Dulbecco's modified Eagle's medium (DMEM) containing 10% fetal bovine serum (FBS). HeLa cells were cultured in MEM/EBSS (MEM) containing 10% FBS. A549 cells were maintained in Kaighn's modification of Ham's F-12 medium containing 10% FBS. The Cell Counting Kit-8 (CCK-8) assay was used to determine the cell viability of cells following treatment with the compound.
(§2) Briefly, cells were seeded in a 96-well plate at a density of 2,000-5,000 cells/well. Following attachment, the cells were treated with the compound in media at a compound concentration of 3.3 μM, 10 μM, or 30 μM, or DMSO as a control. After the cells were incubated at 37° C. for 72 h, the CCK-8 solution (10 μL) was added to each well. After incubation at 37° C. for 4 h, the absorbance value of each well was determined using a multi-well plate reader at 450 nm. The percentage of cell viability was determined with respect to the DMSO-treated cells. The results were summarized in Table 2-4 below, wherein A represents no less than 50% inhibition of cell growth; B represents less than 50% but no less than 30% inhibition of cell growth; C represents less than 30% inhibition of cell growth.

In another assay the test system is HepG2 (liver cancer). Put plainly: Antiproliferative activity, CCK-8 cell viability. Particulars: Homo sapiens, 72 h, read-out: Inhibition of Cancerous Cells, HepG2. As for the experimental part:
as §1, §2

Assay [3] relates to B16F10 (malignant melanoma). Put plainly: Antiproliferative activity, CCK-8 cell viability. Particulars: Mus musculus, B16-F10, 72 h, read-out: Inhibition of Cancerous Cells, B16F10. As to the method:
as §1, §2

A further assay concerns SW480 (colon cancer). The experiment in a line: Antiproliferative activity, CCK-8 cell viability. The conditions noted are these: Homo sapiens, 72 h, read-out: Inhibition of Cancerous Cells, SW480. As for the experimental part: as §1, §2
The next assay relates to HeLa (cervical cancer). The experiment in a line: Antiproliferative activity, CCK-8 cell viability. Particulars: Homo sapiens, 72 h, read-out: Inhibition of Cancerous Cells, HELA. As for the experimental part: as §1, §2
The subject of assay [4] is A549 (lung adenocarcinoma). Put plainly: Antiproliferative activity, CCK-8 cell viability. The conditions noted are these: Homo sapiens, 72 h, read-out: Inhibition of Cancerous Cells, A549. As to the method: as §1, §2
Setting [5] is: compound concentration of 3.3 μM.
The mark [6] stands for this setting: compound concentration of 10 μM.
The mark [7] stands for this setting: compound concentration of 30 μM.

Bounds are passed on as bounds.

Regarding `CC1=C(CC(=O)O)c2cc(F)ccc2/C1=C\c1cccc(Oc2ccccc2)c1` [Compound D18, (Z)-2-(5-Fluoro-2-methyl-1-(3-phenoxybenzylidene)-1H-inden-3-yl)acetic acid], the inhibition at 10 µM in assay [1] is at least 80%.
On the same count and under the same terms, the result for `CC1=C(CC(N)=O)c2cc(F)ccc2/C1=C\c1ccc(C(C)(C)C)cc1` [Compound D41, (Z)-2-(1-(4-(Tert-butyl)benZylidene)-5-fluoro-2-methyl-1H-inden-3-yl)acetamide] reads at least 80%.
As for `CC1=C(CC(=O)O)c2cc(F)ccc2/C1=C\c1ccc(COc2ccc(F)cc2)cc1C(F)(F)F` [Compound A14, 2-[(1Z)-5-Fluoro-1-({4-[(4-fluorophenoxy)methyl]-2-(trifluoromethyl)phenyl}-methylidene)-2-methyl-1H-inden-3-yl]acetic acid], in assay [1], the inhibition at 10 µM is at least 80%.
The same measure, in the same setting: the same measure for `CC1=C(CC(=O)O)c2cc(F)ccc2/C1=C\c1ccc(Oc2ccc(C(F)(F)F)cc2)cc1` [Compound D7, 2-[(1Z)-5-Fluoro-2-methyl-1-({4-[4-(trifluoromethyl)phenoxy]phenyl}-methylidene)-1H-inden-3-yl]acetic acid]: at least 80%; for `CC1=C(CC(=O)N(C)O)c2cc(F)ccc2/C1=C\c1ccc(C)c2ccccc12` [Compound C1, (Z)-2-(5-Fluoro-2-methyl-1-((4-methylnaphthalen-1-yl)methylene)-1H-inden-3-yl)-N-hydroxy-N-methylacetamide]: 50 to 80%; for `CC1=C(CC(=O)NO)c2cc(F)ccc2/C1=C\c1ccc(Br)c2ccccc12` [Compound C4, (Z)-2-(1-((4-Bromonaphthalen-1-yl)methylene)-5-fluoro-2-methyl-1H-inden-3-yl)-N-hydroxyacetamide]: at least 80%.
Same read-out and setting: the result for `COc1ccc2c(c1)C(CC(=O)O)=C(C)/C2=C/c1ccc(Oc2ccccc2)cc1` [Compound D11, 2-[(1Z)-5-Methoxy-2-methyl-1-[(4-phenoxyphenyl)methylidene]-1H-inden-3-yl]acetic acid] reads at least 80%.
On the same count and under the same terms, the result for `CC1=C(CC(=O)O)c2cc(F)ccc2/C1=C/c1ccc(Oc2ccccc2)cc1` [Compound E3, 2-[(1E)-5-Fluoro-2-methyl-1-[(4-phenoxyphenyl)methylidene]-1H-inden-3-yl]acetic acid] reads at least 80%; that for `CC(C)CC1=C(CC(=O)O)c2cc(F)ccc2/C1=C\c1ccc(Oc2ccc(F)cc2)cc1` [Compound D8, 2-[(1Z)-5-Fluoro-1-{[4-(4-fluorophenoxy)phenyl]methylidene}-2-(2-methyl-propyl)-1H-inden-3-yl]acetic acid], at least 80%; that for `CC1=C(CC(=O)O)c2cc(F)ccc2/C1=C\c1ccc(C2=CCCC2)cc1` [Compound D39, (Z)-2-(1-(4-(Cyclopent-1-en-1-yl)benzylidene)-5-fluoro-2-methyl-1H-inden-3-yl)acetic acid], 50 to 80%.
As to `CC1=C(CC(=O)O)c2cc(C(C)(C)C)ccc2/C1=C\c1ccc(Oc2ccc(F)cc2)cc1` [Compound D17, 2-[(1Z)-5-Tert-butyl-2-methyl-1-({4-[4-fluorophenoxy]phenyl}methylidene)-1H-inden-3-yl]acetic acid], in assay [1], the inhibition at 10 µM is at least 80%.
`CC1=C(CC(=O)O)c2cc(F)ccc2/C1=C\c1ccc(Oc2cccc([N+](=O)[O-])c2)cc1` [Compound D6, 2-[(1Z)-5-Fluoro-2-methyl-1-({4-[3-nitrophenoxy]phenyl}methylidene)-1H-inden-3-yl]acetic acid] displayed an inhibition at 10 µM in assay [1] below 30%.
The same measure, in the same setting: the result for `CC1=C(CC(=O)O)c2cc(F)ccc2/C1=C\c1ccc(Oc2ccc(C)c(F)c2)cc1` [Compound D4, 2-[(1Z)-5-Fluoro-2-methyl-1-({4-[3-fluoro-4-methylphenoxy]phenyl}-methylidene)-1H-inden-3-yl]acetic acid] reads at least 80%.
Take `CC1=C(CC(=O)O)c2cc(F)ccc2/C1=C\c1ccc(Br)c2ccccc12` [Compound C3, (Z)-2-(1-((4-Bromonaphthalen-1-yl)methylene)-5-fluoro-2-methyl-1H-inden-3-yl)acetic acid]: in assay [1], the inhibition at 10 µM was at least 80%.
Same read-out and setting: the same measure for `CC1=C(CC(=O)O)c2cc(F)ccc2/C1=C\c1cccc(Oc2ccc(C#N)cc2)c1` [Compound D24, 2-[(1Z)-5-Fluoro-2-methyl-1-({3-[4-cyanophenoxy]phenyl}methylidene)-1H-inden-3-yl]acetic acid]: at least 80%.
On to `CC1=C(CC(=O)O)c2cc(F)ccc2/C1=C\c1cccc(Oc2ccc(C(F)(F)F)cc2)c1` [Compound D26, 2-[(1Z)-5-Fluoro-2-methyl-1-({3-[4-trifluoromethylphenoxy]phenyl}-methylidene)-1H-inden-3-yl]acetic acid], for which the inhibition at 10 µM in assay [1] was at least 80%; in assay [2] (setting [6]), at least 50%; in the assay with HepG2 (liver cancer) (setting [6]), at least 50%; in assay [3] (setting [6]), at least 50%; in the assay on SW480 (colon cancer) (setting [6]), below 30%; in the assay on HeLa (cervical cancer) (setting [6]), at least 50%. The inhibition at 10 µM in assay [4] (setting [6]) was in the range of 30 to 50%. The inhibition at 3.3 µM in assay [2] (setting [5]) is at least 50%; with HepG2 (liver cancer) (setting [5]), 30 to 50%; in assay [3] (setting [5]), 30 to 50%; in the assay on SW480 (colon cancer) (setting [5]) it was below 30%; in the assay on HeLa (cervical cancer) (setting [5]), 30 to 50%; in assay [4] (setting [5]) it was 30 to 50%. For the same compound, the inhibition at 30 µM (in assay [2] (setting [7]); in the assay with HepG2 (liver cancer) (setting [7]); in assay [3] (setting [7]); with SW480 (colon cancer) (setting [7]); in the assay on HeLa (cervical cancer) (setting [7]); in assay [4] (setting [7])) was at least 50% each time.
As for `CC1=C(CC(=O)O)c2cc(F)ccc2/C1=C\c1ccnc2ccccc12` [Compound C5, (Z)-2-(5-Fluoro-2-methyl-1-(quinolin-4-ylmethylene)-1H-inden-3-yl)acetic acid], the inhibition at 10 µM in assay [1] was at least 80%.

Values taken from patent US20240116845A1, “INDENE COMPOUNDS, PHARMACEUTICAL COMPOSITIONS THEREOF, AND THEIR THERAPEUTIC APPLICATIONS” (NucMito Pharmaceuticals Co., Ltd., priority 2021, published 2024).
